# Measured values as given in patent publication EP0407583A1, “DERIVATIVES OF DICHLOR[…] ACYLAMIDO[…] AND INSECTICIDAL, FU[…] HEMATOCIDAL PREPARATIONS BASED ON THEM” (priority 1989, dated 1990).
# How the values were obtained:
# domestic flies [1] = test: Insecticidal activity on domestic flies, laboratory test (gauze boxes); assay type: in vivo; conditions: 0.1% solution in 5% aqueous glucose solution; 50 flies per box; count in 72 hours
# Procedure: (§1) Based on the compound there was prepared an insecticidal composition in the form of a 0.1% solution thereof in a 5% aqueous glucose solution. The activity of the insecticidal composition, according to the invention was tested on domestic flies. To this end, into the gauze-made boxes of 10x10 cm in size (6 boxes) 6-7-day flies of both sexes were placed at the rate of 50 individuals per each box. Into 5 boxes there were placed Petri dishes with a 5% aqueous glycose solutiono An insecticidal activity of the composition, according to the invention, was tested in com- parison with an insecticidal composition based on 0,0-dimethyl(1-hydroxy-2,2,2-trichloroethyl)phosphonate. The tests were also conducted in living and production premises. For this, Petri dishes containing a 0.1% aqueous solution of the insecticide of the invention, to which a 5% glucose solution was added, were put at a rate of 2-3 dishes per 20 m^2. The activity of the composition, according to the invention, was evaluated by a direct count of dead insects in 72 hours or by using the adhesive tapes and counting the number of flies on the tape prior and after the test.
# domestic flies [2] = test: Insecticidal activity on flies, large-scale test in living and production premises; assay type: in vivo; conditions: 0.1% aqueous solution with 5% glucose, 2-3 dishes per 20 m^2, living and production premises; 72 hours
# Procedure: as §1
# Solubility (qualitative) = conditions: water, alcohols, acetone
smiles,measurement,setting,value
"Cc1ccc(C)c(NP(=O)(NC(=O)c2ccc(Cl)cc2)Nc2cc(C)ccc2C)c1 [Example 2, di-2,5-dimethylanil-ide of para-chlorobenzoylamidophosphoric acid]","Death of flies, % tests laboratory",domestic flies [1],92%
same,"Death of flies, % tests large-scale",domestic flies [2],91%
same,solubility,Solubility (qualitative),"soluble in water, alcohols, acetone"
"O=C(CCl)NP(=O)(NCc1ccccc1)NCc1ccccc1 [Example 1, chloroacetylamidophosphoric acid dibenzylamide]","Death of flies, % tests laboratory",domestic flies [1],94%
same,"Death of flies, % tests large-scale",domestic flies [2],93%
same,solubility,Solubility (qualitative),"soluble in water, alcohols acetone"
"O=C(NP(=O)(Nc1ccc(Cl)cc1Cl)Nc1ccc(Cl)cc1Cl)c1ccc(Br)cc1 [Example 6, para-bromobenzoilamidophosphoric acid di-2,4-dichloranilide]","Death of flies, % tests laboratory",domestic flies [1],100%
same,"Death of flies, % tests large-scale",domestic flies [2],100%
same,solubility,Solubility (qualitative),"soluble in water, alcohols, acetone"
"O=C(NP(=O)(Nc1ccccc1Cl)Nc1ccccc1Cl)c1ccc(Br)cc1 [Example 5, para-bromo- bensoylamidophosphoric acid di-ortho-chloranilide]","Death of flies, % tests laboratory",domestic flies [1],100%
same,"Death of flies, % tests large-scale",domestic flies [2],100%
"CCOP(=O)(NC(=O)c1ccc(Cl)c([N+](=O)[O-])c1)OCC [Example 8, diethyl ether of 3-nitro-4-chlorobenzoylamidophosphoric acid]","Death of flies, % tests laboratory",domestic flies [1],98%
same,"Death of flies, % tests large-scale",domestic flies [2],97%
same,solubility,Solubility (qualitative),"soluble in water, alcohols, acetone"
"O=C(NP(=O)(Nc1ccccc1)Nc1ccccc1)c1ccc(Br)cc1 [Example 4, para-bromobenzoilamidophosphoric acid dianilide]","Death of flies, % tests laboratory",domestic flies [1],94%
same,"Death of flies, % tests large-scale",domestic flies [2],93%
same,solubility,Solubility (qualitative),"soluble in water, alcohols, acetone"
"O=C(NP(=O)(Nc1cccc(Cl)c1)Nc1cccc(Cl)c1)c1ccc(Cl)cc1 [Example 3, di-meta- chloranilide pf para-chlorobenzoylamidophosphoric acid]","Death of flies, % tests laboratory",domestic flies [1],87%
same,"Death of flies, % tests large-scale",domestic flies [2],86%
same,solubility,Solubility (qualitative),"soluble in water, alcohols, acetone"
"COP(=O)(NC(=O)c1ccc(Cl)c([N+](=O)[O-])c1)OC [Example 7, dimethyl ether of 3-mitro-4-chlorobenzoylamidiphos-phoric acid]","Death of flies, % tests laboratory",domestic flies [1],76%
same,"Death of flies, % tests large-scale",domestic flies [2],75%
same,solubility,Solubility (qualitative),"soluble in water, alcohols, acetone"
